Data on three molecules can be found in PMC9688798, “Dual-Wavelength Fluorescence Polarization Immunoassay for Simultaneous Detection of Sulfonamides and Antibacterial Synergists in Milk” (Biosensors, 2022).

In brackets after ≈: the same amount, converted by molar mass. Some results are limits rather than exact numbers.

Test [1] relates to mAb 10E6. In words: FPIA tracer-antibody binding, antibody dilution and SMZ competition with mAb 10E6. As to conditions: λex/λem 480/535 nm, working concentration. The protocol: For single format FPIA, 70 μL/well of a standard analyte solution, 70 μL/well of tracer, and 70 μL/well mAb were added to the 96-well low-adsorption microplate. After incubation for 2 min in the dark, FP values were measured at λex 480 nm and λem 535 nm for the SAs tracers (SADMPM-EDF, SADMPM-BDF, and SADMPM-HDF) or at λex 620 nm and λem 688 nm for the ASGs tracers (HaptenA-DSCA, HaptenA-DSCH, and HaptenA-AF647). For DWFPIA detection, 70 μL/well standard cocktail solutions were mixed with 70 μL/well of tracer cocktail solutions in the working dilution and 70 μL/well of mAb cocktail solutions in the working dilution. […]
In DWFPIA, we mainly focused on three analytical parameters to select the optimum antibody–tracer pairs, including the half-maximal inhibitory concentration (IC50), the detection window (δmP = mPmax − mPmin), and the titer of the mAbs. […] The IC50 of DWFPIA based on the antibody–tracer pairs was assessed according to standard curves, as described in Section 2.3.3. δmP was the difference between the observed maximum FP value of the tracer bound to a saturating amount of antibody (mPmax) and the observed minimum FP value of the free tracer (mPmin). […] In addition, the binding abilities of the tracers and mAbs were assessed. […] According to the antibody dilution curve, the titer of the mAbs utilized for each tracer that satisfied the δmP criterion was calculated. […]

The test system of test [2] is cocktail mAbs of 10E6 and 9C9. Put plainly: Nonspecific binding analysis with cocktail mAbs. As to conditions: λex/λem 480/535 nm, working concentration. The protocol:
The detection system of DWFPIA consists of two distinct fluorescence signals; moreover, the interference between the short-wavelength fluorescein (EDF/BDF/HDF) and the long-wavelength fluorescein (DSCA/DSCH/AF647) could be ignored, according to our previous studies. Furthermore, the nonspecific binding was analyzed by comparing the FP changes of each tracer (or the tracer cocktail) upon the addition of the free, specific, non-specific, and cocktail mAbs at working concentrations. […] At 620 nm/688 nm, the binding of the tracer HaptenA-DSCA and its corresponding antibody mAb 9C9 was not affected by the presence of non-specific mAb 10E6, as shown in Figure 3A.

Test [3] deals with mAb 10E6. In words: DWFPIA for SAs (tracer SADMPM-HDF, λex 480 nm/λem 535 nm). Format: binding. The following applies: for IC50: 480 nm/535 nm. The protocol: (§1) For single format FPIA, 70 μL/well of a standard analyte solution, 70 μL/well of tracer, and 70 μL/well mAb were added to the 96-well low-adsorption microplate. After incubation for 2 min in the dark, FP values were measured at λex 480 nm and λem 535 nm for the SAs tracers (SADMPM-EDF, SADMPM-BDF, and SADMPM-HDF) or at λex 620 nm and λem 688 nm for the ASGs tracers (HaptenA-DSCA, HaptenA-DSCH, and HaptenA-AF647). For DWFPIA detection, 70 μL/well standard cocktail solutions were mixed with 70 μL/well of tracer cocktail solutions in the working dilution and 70 μL/well of mAb cocktail solutions in the working dilution. After incubation for 2 min in the dark, the corresponding signals of the tracers were collected simultaneously.
(§2) The procedure to develop the standard curves of DWFPIA for the simultaneous detection of SMZ and TMP was follows: the standard cocktail solutions were prepared by mixing an equal quantity of the standard of SMZ and TMP. Subsequently, the optimum two tracers for each mAbs were added with equal volumes, and then mixed with the two mAbs against SMZ and TMP. The other steps followed the above protocol for FPIA. […] Y = (A − D)/[1 + (X/C) ^B] + D(1) where Y represents the FP value for the corresponding different concentrations of the standard (analyte); A and D represent the asymptotic maximum and minimum of the FP values, respectively; and B is the slope of the curve at the inflection point. C is the IC50 value that defines the standard concentration of SMZ or TMP (analyte) at 50% tracer binding, and X is SMZ/TMP in various concentrations. Furthermore, IC20–IC80 was calculated as the detectable range of the DWFPIA. According to the following equation, the cross reactivity (CR) of the DWFPIA was acquired as follows:CR= (IC50 of SMZ or TMP)/(IC50 of analyte compound) × 100%(2)
(§3) To obtain a sensitive FPIA, the effects of some physicochemical conditions on DWFPIA were evaluated by comparing the δmP/IC50 ratios under various conditions, including pH and organic solvents. Based on the optimal antibody–tracer pairs, pH values of 6.0, 7.0, 8.0, and 9.0 were tested and the other parameters of the assay remain unchanged. To clarify the effects of organic solvents on the development of DWFPIA, various concentrations of methanol and acetonitrile were tested, that is, 0%, 2.5%, 5%, 10%, 20%, and 30% (v/v) for methanol and 0%, 2.5%, 5%, 10%, and 20% (v/v) for acetonitrile. SMZ and TMP were used as the reference analyte in DWFPIA optimization to construct standard curves, seperately.

The subject of test [4] is mAb 9C9. Put plainly: DWFPIA for ASGs (tracer HaptenA-DSCA, λex 620 nm/λem 688 nm). Format: binding. On the procedure:
as §1, §2, §3

The mark [5] stands for this setting: final concentration of 10% acetonitrile.

Turning to `Cc1nc(NS(=O)(=O)c2ccc(N)cc2)nc(C)c1CCCCC(=O)NCCCCCCNC(=S)Nc1ccc2c(c1)C(=O)OC21c2ccc(O)cc2Oc2cc(O)ccc21` [SADMPM-HDF], in test [1], the “Fluorescence Polarization, tracer and mAb 10E6” value is on record as 178.6 mP. For the same molecule, in test [2], the “Fluorescence Polarization, tracer and cocktail mAbs” value was found to be 178.8 mP.

Take `Cc1cc(C)nc(NS(=O)(=O)c2ccc(N)cc2)n1` [SMZ, Sulfamethazine]: the δmP in test [3] (10% final acetonitrile concentration) is recorded as less than 80 mP. In addition, the IC50 amounted to 4.67 ng/mL (≈ 16.8 nM) in test [3] (analyte in mixed format (standard cocktail)); 4.55 ng/mL (≈ 16.3 nM) in test [3] (analyte in single format, tracer and mAb cocktail). The CRs in test [3] (cross reactivity = IC50 of SMZ / IC50 of analyte × 100%) was determined as 100%.

Regarding `COc1cc(Cc2cnc(N)nc2N)cc(OC)c1OC` [TMP, Trimethoprim], the IC50 in test [4] (analyte in mixed format (standard cocktail), 620 nm/688 nm) came to 1.12 ng/mL (≈ 3.86 nM); in test [4] (analyte in single format, tracer and mAb cocktail, 620 nm/688 nm), 1.06 ng/mL (≈ 3.65 nM); in test [4] (setting [5]) it was 1.7 ng/mL (≈ 5.86 nM); in test [4] (without acetonitrile (start of the change)) it was 1.1 ng/mL (≈ 3.79 nM). The same molecule displayed a CRs in test [4] (cross reactivity = IC50 of TMP / IC50 of analyte × 100%) of 100%. Also, in test [4] (setting [5]), the δmP result is recorded as “greater than 80 mP”.
